Experimental data published in patent publication US8299111B2, “Compounds which modulate the CB2 receptor” (Boehringer Ingelheim International GmbH, priority 2006, dated 2012).

molecular target: T1, human CB2R (Homo sapiens, UniProt P34972); assay: CB2R mediated modulation of cAMP synthesis; assay type: cell-based; settings: found through the use of the above described assays (binding and cAMP); CHO cells expressing human CB2R, forskolin-stimulated cAMP
T1 construct: host or cells: CHO cells
Summary of the method: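 CHO cells expressing human CB2R were treated for 30 min at 37 °C with compound in buffer containing 1 mM IBMX, 0.25% BSA and 10 uM forskolin. cAMP was measured after lysis. EC50 is the concentration giving 50% inhibition of forskolin-stimulated cAMP, scaled to the level set by 1 uM CP55940, fitted by four-parameter logistic.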

T1 sequence (P34972 whole entry): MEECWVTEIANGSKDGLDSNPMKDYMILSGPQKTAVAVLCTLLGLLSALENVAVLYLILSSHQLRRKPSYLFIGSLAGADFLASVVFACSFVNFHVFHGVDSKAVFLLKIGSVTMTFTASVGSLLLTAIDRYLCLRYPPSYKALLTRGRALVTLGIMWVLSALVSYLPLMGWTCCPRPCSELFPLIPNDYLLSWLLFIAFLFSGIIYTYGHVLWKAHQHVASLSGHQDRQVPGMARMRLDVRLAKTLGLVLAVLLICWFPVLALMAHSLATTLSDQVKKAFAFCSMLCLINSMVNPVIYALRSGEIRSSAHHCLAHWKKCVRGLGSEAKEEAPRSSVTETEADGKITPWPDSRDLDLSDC

agonistic activity | Structure (SMILES)
agonistic activity | CC(C)(C(=O)Nc1nc(-c2ccc(Cl)cc2)cs1)S(=O)(=O)c1ccc(C(F)(F)F)nc1 [N-[4-(4-chlorophenyl)-1,3-thiazol-2-yl]-2-methyl-2-{[6-(trifluoromethyl)pyridin-3-yl]sulfonyl}propanamide]
agonistic activity | CC(C)(C(=O)Nc1cc2ccccc2cn1)S(=O)(=O)c1ccc(C(F)(F)F)nc1 [N-isoquinolin-3-yl-2-methyl-2-{[6-(trifluoromethyl)pyridin-3-yl]sulfonyl}propanamide]
agonistic activity | CCOC(=O)c1sc(NC(=O)C(C)(C)S(=O)(=O)c2ccc(Cl)cc2)nc1C(F)(F)F [ethyl 2-({2-[(4-chlorophenyl)sulfonyl]-2-methylpropanoyl}amino)-4-(trifluoromethyl)-1,3-thiazole-5-carboxylate]

Structure (SMILES) | agonistic activity
CC(C)(C(=O)Nc1ncc(-c2ccc(F)c(F)c2)s1)S(=O)(=O)c1ccc(F)cc1 [N-[5-(3,4-Difluoro-phenyl)-thiazol-2-yl]-2-(4-fluoro-benzenesulfonyl)-2-methyl-propionamide] | agonistic activity
